Laboratory results published in PubChem BioAssay (NCI).
Values joined by “and” are separate entries in the source; they are usually repeats but may differ in a detail not shown here. Identical values can stand only once.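 A five-concentration, 48-hour dose response in 96-well plates underlies each endpoint, interpolated linearly between surrounding concentrations. Here, GI50 denotes the concentration required for 50% inhibition of growth. At the TGI there is no net growth.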

How the values were obtained:
Assay in all cases: NCI tumour cell line growth inhibition, 48 h
ACHN renal = test system: ACHN renal
CAKI-1 renal = test system: CAKI-1 renal
CCRF-CEM leukemia = test system: CCRF-CEM leukemia
HCC-2998 colon = test system: HCC-2998 colon
HL-60(TB) leukemia = test system: HL-60(TB) leukemia
HOP-62 NSCLC = test system: HOP-62 NSCLC
MOLT-4 leukemia = test system: MOLT-4 leukemia
OVCAR-5 ovarian = test system: OVCAR-5 ovarian
SF-295 CNS = test system: SF-295 CNS
SN12C renal = test system: SN12C renal

| SMILES | TGI (ACHN renal) [µM] | TGI (CAKI-1 renal) | TGI (CCRF-CEM leukemia) | TGI (HCC-2998 colon) | TGI (HL-60(TB) leukemia) | TGI (HOP-62 NSCLC) | TGI (MOLT-4 leukemia) | TGI (OVCAR-5 ovarian) [µM] | TGI (SF-295 CNS) [µM] | TGI (SN12C renal) | GI50 (ACHN renal) [µM] | GI50 (CAKI-1 renal) [µM] | GI50 (CCRF-CEM leukemia) [µM] | GI50 (HCC-2998 colon) [µM] | GI50 (HL-60(TB) leukemia) [µM] | GI50 (HOP-62 NSCLC) [µM] | GI50 (MOLT-4 leukemia) | GI50 (OVCAR-5 ovarian) | GI50 (SF-295 CNS) [µM] | GI50 (SN12C renal) [µM] |
| --- | --- | --- | --- | --- | --- | --- | --- | --- | --- | --- | --- | --- | --- | --- | --- | --- | --- | --- | --- | --- |
| COC(=O)c1c(-c2ccccc2)cc2c3cc(-c4ccccc4)c(C(=O)OC)n3c3ccccc3n12 | > 100 | > 100 µM | > 100 µM | > 100 µM | > 100 µM | > 100 µM | > 100 µM | > 100 | > 100 | > 100 µM |  |  |  |  |  |  |  |  |  |  |
| O=c1oc2ccccc2c(O)c1/C=N\c1nc(-c2ccccc2)cs1 | 24 | 12.2 µM | 9.74 µM | > 100 µM | 4.01 µM | 64.4 µM | 7.03 µM | 35.1 | 69.2 | 23.1 µM |  |  |  |  |  |  |  |  |  |  |
| COc1cc(-c2cnn(C)c2)ccc1Nc1ncc2ccnc(N[C@@H](C)C(C)(C)C)c2n1 | > 100 | > 100 µM | > 100 µM | > 100 µM | > 100 µM | > 100 µM | > 100 µM | > 100 | > 100 | > 100 µM | 4.29 | > 100 | > 100 | > 100 | > 100 | > 38.3 | > 69 µM | 97.8 µM | > 63.3 | > 100 |
| CC1(C)C2CC(c3ccncc3)ON2C(C)(C)N1O (stereo not given) | > 100 | > 100 µM | > 100 µM | > 100 µM | > 100 µM | > 100 µM | > 100 µM | > 100 | > 100 | > 100 µM |  |  |  |  |  |  |  |  |  |  |
| CCN(CC)c1ccc(N=Nc2ccc(-c3nc4cccnc4o3)cc2)cc1 | > 100 | > 100 µM | > 100 µM | > 100 µM | > 100 µM | > 100 µM | > 100 µM | > 100 | > 100 | > 100 µM |  |  |  |  |  |  |  |  |  |  |
| CCCCNc1nc(NC(C)(C)C)nc(NC(C)(C)C)n1 | > 100 | > 100 µM | > 100 µM | > 100 µM | > 100 µM | > 100 µM | > 100 µM | > 100 | > 100 | > 100 µM | 6.41 | 5.55 | 3.18 | 8.05 | 15.7 | 18.7 | 5.69 µM | 15.2 µM | 6.03 | 3.1 |
| O=C1C=C(c2c(O)ccc3ccccc23)c2ccccc2C1=O | 11.7 | 24 µM | 7.55 µM | 26.5 µM | 15.3 µM | 33.5 µM | 4.41 µM | 25 | 12.4 | 12.2 µM |  |  |  |  |  |  |  |  |  |  |
| CC#CC(O)(C(=O)OC1CCCN(C)C1)C1=CC=CCC1 (stereo not given) | > 100 | > 100 µM | > 100 µM | > 100 µM | > 100 µM | > 100 µM | > 100 µM | > 100 | > 100 | > 100 µM |  |  |  |  |  |  |  |  |  |  |
| O=[N+]([O-])c1ccc2[nH]cc(-c3c4ccsc4cc4[nH]c5ccc([N+](=O)[O-])cc5c34)c2c1 | 14.9 | 9.94 µM | 23.3 µM | 6.27 µM | 19.4 µM | 9.25 µM | 5.5 µM | 7.8 | 3.09 | 11.4 µM | 1.52 | 0.758 | 1.05 | 1.88 | 1.1 | 1.13 | 1.27 µM | 1.29 µM | 0.629 | 1.43 |
| CN1CCN(Cc2ccc(NC(=O)c3cncc(C#Cc4cnc(N)c5ccc(F)cc45)c3)cc2C(F)(F)F)CC1 | 4.36 | 4.57 µM | 16.4 µM | 5.98 µM | 4.42 µM | 7.24 µM | 6.19 µM | 7.51 | 7.35 | 4.89 µM | 1.02 | 1.1 | 0.865 | 1.7 | 1.05 | 2.89 | 0.974 µM | 3.52 µM | 2.9 | 1.2 |
| CCN(CC)CCC1CC/C(=C\c2ccc(OC)cc2)C1=O (stereo not given) | > 100 | > 100 µM | > 100 µM | > 100 µM | > 100 µM | > 100 µM | > 100 µM | > 100 | > 100 | > 100 µM |  |  |  |  |  |  |  |  |  |  |
| S=C(Nc1ccc(-c2nc3ccccc3[nH]2)cc1)NC1CCCCC1 | 42.2 | 55.2 µM |  | 32.4 µM |  | > 100 µM | > 100 µM |  | 30.3 | 55 µM | 18.1 |  | 36.8 | 16.4 | 46.9 | 55.7 | 28.3 µM | 42.4 µM | 7.06 | 25 |
| C[CH2][Sn]1([CH2]C)[O]C(=O)[O][Sn]([CH2]C)([CH2]C)[O]1 | > 64.6 | 9.72 µM | 31.8 µM | > 100 µM | 81.7 µM | > 68.2 µM | > 100 µM | > 59.5 | 34.7 | > 100 µM | > 50.4 | 1.44 | 5.39 | 60 | 26.4 | 41.8 | 41.7 µM | > 45.8 µM | 19.4 | > 63.4 |
| O=c1ccn(C2OC(CO)C(O)C2O)c(=O)[nH]1 (stereo not given) | > 1000 | > 1000 µM | > 1000 µM | > 1000 µM | > 1000 µM | > 1000 µM | > 1000 µM | > 1000 | > 1000 | > 1000 µM | > 1000 |  | > 1000 | > 1000 | > 1000 | > 1000 | 832 µM and > 10 µM |  | > 1000 | > 1000 |
| Cc1cc2nc3c(=O)n(C)c(=O)nc-3n(-c3ccc(Cl)cc3)c2cc1C | 24.7 | 48.8 µM | 45.4 µM | 20.4 µM | 24.3 µM | 65.1 µM | 32.8 µM | 32.6 | 26.1 | 18.6 µM |  |  |  |  |  |  |  |  |  |  |
| Cc1cc(/C=C2\SC(=Nc3ccccc3)N(C3CCCC3)C2=O)c(C)n1-c1ccc(Cl)cc1 | > 100 | > 100 µM | > 100 µM | > 100 µM | > 100 µM | > 100 µM | > 100 µM | > 100 | > 100 | > 100 µM | > 100 | > 100 | > 100 | > 100 | > 100 | > 100 | > 100 µM | > 100 µM | > 100 | > 100 |
| NC(N)=N/N=C(/c1nc2ccc([N+](=O)[O-])cc2[nH]c1=O)C(O)c1ccco1 (stereo not given) | > 100 | > 100 µM | > 100 µM | > 100 µM | > 100 µM | > 100 µM | > 100 µM | > 100 | > 100 | > 100 µM |  |  |  |  |  |  |  |  |  |  |
| Cc1cc(S(=O)(=O)Nc2nc(N)nc(N3N=CCC3C)n2)c(S)cc1Cl (stereo not given) | > 10 | > 10 µM | > 10 µM | > 10 µM | > 10 µM | > 10 µM | > 10 µM | > 10 | > 10 | > 10 µM |  |  |  |  |  |  |  |  |  |  |
| Oc1ccc(N=Nc2ccc(Cl)cc2)cc1 | 27.7 | 36.6 µM | > 100 µM | 29.8 µM | 52.3 µM | 35.6 µM | 51.7 µM | 32.2 | 34.6 | 31.2 µM |  |  |  |  |  |  |  |  |  |  |
| CN1CC(c2ccccc2)N(CCCCN2CC(c3ccccc3)N(C)CC2c2ccccc2)CC1c1ccccc1 (stereo not given) | > 100 | > 100 µM | > 100 µM | > 100 µM | > 100 µM | > 100 µM | > 100 µM | > 100 | > 100 | > 100 µM |  |  |  |  |  |  |  |  |  |  |
| COc1cc(C2c3cc4c(cc3[C@@H](Nc3ccc(C(=O)O)cc3)C3COC(=O)[C@H]23)OCO4)cc(OC)c1O (stereo not given in full) | > 100 | 47.1 µM and > 17.5 µM | 15.1 µM and 8.82 µM | 53.8 µM and > 17.5 µM | 22.8 µM and 16.7 µM | 33.9 µM and > 17.5 µM | 5.47 µM and 2.66 µM | > 100 | > 100 | 75.6 µM and > 17.5 µM |  |  |  |  |  |  |  | 48.3 µM and > 17.5 µM |  |  |
| COc1cc2c(cc1OCc1ccccc1)N=C[C@@H]1C/C(=C/C(=O)NCCCN3C(=O)c4cccc5cccc(c45)C3=O)CN1C2=O | > 61.4 | 19.7 µM | > 100 µM | 1.26 µM | > 23.3 µM | > 40.3 µM | 63.9 µM | 14.4 | 9.49 | 2.4 µM | 3.82 | 2.14 | 0.0548 | 0.142 | 0.171 | 0.583 | 0.0553 µM | 0.617 µM | 0.63 | 0.346 |
| CC1=CSC2=NC(c3ccc(Cl)c(Cl)c3)=CC(c3ccc(Cl)cc3)N12 (stereo not given) | > 100 | > 100 µM | > 100 µM | > 100 µM | > 100 µM | > 100 µM | > 100 µM | > 100 | > 100 | > 100 µM | > 100 | > 100 | > 100 | > 100 | > 100 | > 100 | > 100 µM | > 100 µM | > 100 | > 100 |
| CCOC(=O)CCC(=O)C1c2cccc(O)c2C(=O)c2c(O)cccc21 | 2.9 | 4.99 µM | 3.68 µM | 2.31 µM | 0.657 µM | 3.8 µM | 13.7 µM | 3.38 | 1.95 | 3.22 µM |  |  |  |  |  |  |  |  |  |  |
| COc1cc2c(cc1C)NC(=O)/C2=C\c1cc(OC)c(OC)c(OC)c1 | > 100 | > 100 µM | 32.1 µM | > 100 µM | 45.7 µM | 53.9 µM | 38.8 µM | > 100 | > 100 | > 100 µM | 64.1 | > 100 | 8.18 | > 100 | 13.8 | 22.1 | 12.5 µM | 32.2 µM | 39.5 | > 100 |
| NC(=O)c1c[se]c(C2OC(CO)C(O)C2O)n1 (stereo not given) | > 100 | > 100 µM | > 100 µM | > 100 µM | > 100 µM | > 100 µM | > 49 µM | > 100 | > 49.8 | > 100 µM |  |  |  |  |  |  |  |  |  |  |
| c1ccc2c(c1)[I+]c1ccccc1-2 | > 50 | > 50 µM | > 50 µM | > 50 µM | > 50 µM | > 50 µM | > 50 µM | > 50 | > 50 | > 50 µM | > 50 | > 50 | > 50 | > 50 | > 50 | 28 | > 50 µM | > 50 µM | 35 | > 50 |
